Test results taken from ChEMBL document CHEMBL1201862, “PubChem BioAssay data set” (2004).
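Briefly, cells in 96-well plates were exposed to five compound concentrations for 48 h, and endpoints were estimated by linear interpolation. GI50 = concentration required for 50% inhibition of growth.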 Active and inactive are the calls of the source. Cut-off read from the data, not from the text of the source: active = GI50 up to about 1.1 µM and inactive = higher.

Key:
Test in all cases: NCI anticancer screen, dose series, 48 h
[1] = system: 786-0
[2] = system: HCC 2998
[3] = system: HOP-62
[4] = system: HT-29
[5] = system: Hs-578T
[6] = system: KM12
[7] = system: MDA-MB-231
[8] = system: MDA-MB-435
[9] = system: NCI-H226
[10] = system: NCI/ADR-RES
[11] = system: OVCAR-3
[12] = system: OVCAR-5
[13] = system: OVCAR-8
[14] = system: SK-MEL-28
[15] = system: SK-MEL-5
[16] = system: SK-OV-3
[17] = system: SNB-19
[18] = system: U-251
[19] = system: CCRF-CEM

Measured: GI50

CC(C)CN(CC#N)CC(C)C
inactive: [1] > 100 µM | [2] > 100 µM | [3] > 100 µM | [4] > 100 µM | [5] > 100 µM | [6] > 100 µM | [7] > 100 µM | [8] > 100 µM | [9] > 100 µM | [10] > 100 µM | [11] > 100 µM | [12] > 100 µM | [13] > 100 µM | [14] > 100 µM | [15] > 100 µM | [16] > 100 µM | [17] > 100 µM | [18] > 100 µM

CC(CC(C#N)(c1ccccc1)c1ccccc1)N1CCCCC1 (configuration not stated)
inactive: [1] 27.3 µM | [19] 23.6 µM | [2] 15.4 µM | [3] 29.2 µM | [4] 18.3 µM | [5] 27.3 µM | [6] 18.1 µM | [7] 25.7 µM | [8] 19.1 µM | [9] 20.7 µM | [10] 28.1 µM | [11] 17.6 µM | [12] 33.1 µM | [13] 42.1 µM | [14] 23.1 µM | [15] 18 µM | [16] 65.6 µM | [17] 80.5 µM | [18] 29.6 µM

COc1ccc2nccc(/C=C/c3ccc(N(C)C)cc3)c2c1
inactive: [1] > 10 µM | [19] 5.66 µM | [2] > 10 µM | [3] > 10 µM | [4] > 10 µM | [5] > 10 µM | [6] > 10 µM | [7] > 10 µM | [8] 2.31 µM | [9] > 10 µM | [10] > 10 µM | [11] > 10 µM | [12] > 10 µM | [13] > 10 µM | [14] > 10 µM | [15] > 10 µM | [16] > 10 µM | [17] > 10 µM | [18] > 10 µM

Nc1ncnc2c1ccn2CC#CCO
inactive: [1] > 100 µM | [19] > 100 µM | [2] > 100 µM | [3] > 100 µM | [4] > 100 µM | [5] > 100 µM | [6] > 100 µM | [7] > 100 µM | [8] > 100 µM | [10] > 100 µM | [11] > 100 µM | [12] > 100 µM | [13] > 100 µM | [14] > 100 µM | [15] > 100 µM | [16] > 100 µM | [17] > 100 µM | [18] > 100 µM

C/C(=N\c1ccc(Cl)cc1)c1ccncc1
inactive: [1] > 100 µM | [19] 1.22 µM | [2] > 100 µM | [3] > 100 µM | [4] > 100 µM | [5] > 100 µM | [6] > 100 µM | [7] > 100 µM | [8] 1.9 µM | [9] > 100 µM | [10] > 100 µM | [11] 41 µM | [12] > 100 µM | [13] > 100 µM | [14] 5.14 µM | [15] 2.13 µM | [17] > 100 µM | [18] > 100 µM

O=C1N[C@H](C(=O)O)[C@@H](c2ccc(OCc3ccccc3)cc2)O1
inactive: [1] 16.6 µM | [19] > 100 µM | [2] > 100 µM | [3] 13.6 µM | [4] > 100 µM | [5] 27.5 µM | [6] > 100 µM | [7] 23.2 µM | [8] > 100 µM | [9] 24.9 µM | [10] 22.5 µM | [11] 92.5 µM | [12] > 100 µM | [13] 20.7 µM | [14] > 100 µM | [15] > 100 µM | [16] 44.1 µM | [17] 17.7 µM | [18] 27.9 µM

CCOP(=O)(OCC)/C(=C/c1cccs1)CC(C)=O
inactive: [1] > 100 µM | [19] > 100 µM | [2] > 100 µM | [3] > 100 µM | [4] > 100 µM | [5] > 100 µM | [6] > 100 µM | [7] > 100 µM | [8] > 100 µM | [9] > 100 µM | [10] > 100 µM | [11] > 100 µM | [12] > 100 µM | [13] > 100 µM | [14] > 100 µM | [15] > 100 µM | [16] > 100 µM | [17] > 100 µM | [18] > 100 µM

CNC(=O)c1nc[nH]c1/N=N/N(C)N
inactive: [1] > 100 µM | [19] > 10 µM | [2] > 100 µM | [3] > 100 µM | [4] > 100 µM | [5] > 100 µM | [6] 40.5 µM | [7] > 100 µM | [8] > 100 µM | [9] > 100 µM | [10] > 100 µM | [11] > 100 µM | [12] > 100 µM | [13] > 100 µM | [14] > 100 µM | [15] 49.9 µM | [16] > 100 µM | [18] > 100 µM

CC1(CCCO)CCCCCCCCCC(C)(CCCO)C1=O (configuration not stated)
inactive: [1] > 100 µM | [19] 55 µM | [2] > 100 µM | [3] > 100 µM | [4] > 100 µM | [5] > 100 µM | [6] > 100 µM | [7] > 100 µM | [8] > 100 µM | [9] > 100 µM | [10] > 100 µM | [11] > 100 µM | [12] > 100 µM | [13] > 100 µM | [14] > 100 µM | [15] > 100 µM | [16] > 100 µM | [17] > 100 µM | [18] > 100 µM

[O-][N+]1=NC(c2ccccc2)=C1c1ccccc1
inactive: [1] > 50 µM | [19] > 50 µM | [3] > 50 µM | [4] > 50 µM | [5] > 50 µM | [6] > 50 µM | [7] > 50 µM | [8] > 50 µM | [9] > 50 µM | [10] > 50 µM | [11] > 50 µM | [12] > 50 µM | [13] > 50 µM | [14] > 50 µM | [15] > 50 µM | [16] > 50 µM | [17] > 50 µM | [18] > 50 µM

O=c1c(C(c2ccc(-c3ccccc3)cc2)c2c(O)oc3ccccc3c2=O)c(O)oc2ccccc12
inactive: [1] 26.9 µM | [19] 31.3 µM | [2] 15.6 µM | [3] 24.1 µM | [4] 20.3 µM | [5] 24.4 µM | [6] 19.6 µM | [7] 23.3 µM | [8] 22.8 µM | [9] 23.2 µM | [10] 21.6 µM | [11] 24.3 µM | [13] 17.2 µM | [14] 16.3 µM | [15] 28.7 µM | [17] 30.5 µM | [18] 44.8 µM
